Data on 33 compounds can be found in the METLIN SMRT retention time set (Domingo-Almenara et al. 2019).

This series is described as follows: gradient 5% acetonitrile 3 min, to 50% in 2 min, to 85% in 15 min, held 3 min, 100 µL/min. As to conditions: column: Zorbax Extend-C18 2.1 x 50 mm; eluents: water / acetonitrile, 0.1% formic acid. The gist of the method: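 Retention time was recorded from adduct peaks, which were picked computationally and each inspected manually. Pure standards ran in mixtures of ~100 molecules on HPLC coupled to a quadrupole time-of-flight mass spectrometer, in positive and negative ionization mode, through a Zorbax Extend-C18 column (2.1 × 50 mm, 1.8 μm) at 100 μL/min. Eluents were water and acetonitrile, each with 0.1% formic acid.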
`Cc1cccc(-c2noc(Cc3nc(-c4ccc5c(c4)OCO5)cs3)n2)c1` returned an RP-LC retention time of 1200 s. In turn, `COc1ccc(NC(=O)[C@@H]2c3ccccc3C(=O)N3CCCC[C@@H]23)c(OC)c1` came in with an RP-LC retention time of 752 s. In the case of `COc1cc(CCC(=O)N2CC(c3noc(C4CCCN4C)n3)C2)on1` (stereo not drawn) it was 570 s; in that of `COc1ccc(-c2ncc(C(=O)Nc3ccc(OC)c(OC)c3)c(-c3ccncc3)n2)cc1`, 769 s; in that of `CCNC(=O)C1CCN(S(C)(=O)=O)c2cc(C)ccc2O1` (stereo not drawn), 696 s. `COc1cc(OC)cc(N2C=C(C#N)S(=O)(=O)c3ccccc32)c1`: the RP-LC retention time was found to be 910 s. Compound `O=C(NCc1ccc(N2CCOCC2)nc1)c1cccc(Br)c1` returned an RP-LC retention time of 626 s. `Cc1ccc(CCNC(=O)c2cc3n(n2)CC(C)(C(=O)NC2CCCC2)N(C)C3=O)cc1` (stereo not drawn): the RP-LC retention time came out at 809 s. For `Cn1c(N2CCCC(C(=O)NCCCc3ccccc3)C2)cc(=O)n(C)c1=O` (stereo not drawn) the value was 736 s; for `CC(C)CNC(=O)CCn1c(=O)c2ccccc2n2c(=O)n(Cc3ccccc3F)nc12`, 879 s. `O=C([C@@H]1C[C@H](F)CN1C(=O)c1ccccc1F)N1CCCCC1`: the RP-LC retention time stood at 677 s. In turn, `COc1ccccc1NC(=O)c1cccc(N2CCNC(c3ccccc3)C2)n1` (stereo not drawn) displayed an RP-LC retention time of 693 s. In the case of `Cc1cc(C)cc(Nc2c(-c3ccc(C(=O)O)cc3)nc3cnccn23)c1`, the RP-LC retention time came out at 779 s. In the case of `COc1ccc(S(=O)(=O)Cc2nc(-c3ccc(Br)cc3)no2)cc1` it was 1040 s; in that of `COc1cc(-c2nc3ncccn3c2Nc2ccccc2)ccc1O`, 633 s; in that of `O=C(NCc1c(F)cccc1Cl)C(=O)c1c[nH]c2ccccc12`, 931 s. Turning to `CCc1noc(C2(NC(=O)c3ccc(F)c(Cl)c3)CCCCC2)n1`, the RP-LC retention time is 1030 s. `CS(=O)(=O)N1CCCc2cc(C(=O)Nc3cccc(Br)c3)ccc21` came in with an RP-LC retention time of 984 s. Turning to `O=C(CSc1ncnc2c1[nH]c1ccc(Br)cc12)NC1CCCCC1`, the RP-LC retention time amounted to 957 s. In the case of `CCCN1CCn2cc(C(=O)NC(C)c3ccccc3)nc2C1` (stereo not drawn) it was 603 s.

As for `Cc1ccc(NC(=O)NCC2CCOCC2)cc1F`, the RP-LC retention time worked out at 710 s. For `O=C(Nc1ccccc1)N1CCc2[nH]cnc2C1c1ccccn1` (stereo not drawn) the value was 598 s.

The compound `COc1ccc2c(c1)C=C(C(=O)Nc1cc(OC)c(OC)c(OC)c1)CO2` had an RP-LC retention time of 909 s.

For the compound `CO[C@H]1C(=O)N(C2CCN(C(=O)Nc3ccc4c(c3)OCCO4)CC2)[C@H]1c1ccncc1`, the RP-LC retention time was 582 s. Regarding `Cn1c(=O)oc2cc(-c3noc(CNS(=O)(=O)c4ccccc4)n3)ccc21`, the RP-LC retention time was 805 s.

The compound `COC(=O)c1c(C)c(C(=O)C(C)N(Cc2ccc(F)cc2)C(=O)C2CC2)c(C)n1C` (stereo not drawn) displayed an RP-LC retention time of 917 s. `Cc1cccc(CNC(=O)c2cn3ccncc3n2)c1` returned an RP-LC retention time of 705 s. The compound `CC1Oc2ccc(S(=O)(=O)N3CCC(C(=O)Nc4ccc(F)cc4)CC3)cc2NC1=O` (stereo not drawn) showed an RP-LC retention time of 829 s. In the case of `CC1=NS(=O)(=O)N(Cc2ccccc2)C=C1C(=O)OCc1ccccc1Cl` it was 1160 s; in that of `O=c1ccc(-c2ccc(F)cc2)nn1CCc1nc(-c2ccccc2Cl)no1`, 1020 s.

`O=C(NCCc1c[nH]c2ccccc12)c1noc2c1CSc1ccccc1-2` gave an RP-LC retention time of 1130 s. `COc1cc(NC(=O)c2c(C)oc3nc(C)nc(N4CCOCC4)c23)cc(OC)c1` had an RP-LC retention time of 804 s.

`CN1C(=O)c2cccnc2Sc2cc(NC(=O)c3cc(Cl)ccc3F)ccc21` came in with an RP-LC retention time of 859 s.
